# Measurements reported in ChEMBL document CHEMBL1208719, “Design and synthesis of 4-[3,5-dioxo-11-oxa-4,9-diazatricyclo[5.3.1.0(2,6)]undec-4-yl]-2-trifluoromethyl-benzonitriles as androgen receptor antagonists” (Bioorg Med Chem Lett, 2010).
# What was measured:
# LNCaP = experiment: Cytotoxicity against human LNCAP cells assessed as inhibition of DHT-induced cell growth at 5 uM; type: functional
# Androgen receptor [1] = molecular target: T1, Androgen receptor (Homo sapiens, UniProt P10275); experiment: Displacement of [3H]DHT from AR in human MDA-MB-453 cells
# T1 sequence (P10275 whole entry): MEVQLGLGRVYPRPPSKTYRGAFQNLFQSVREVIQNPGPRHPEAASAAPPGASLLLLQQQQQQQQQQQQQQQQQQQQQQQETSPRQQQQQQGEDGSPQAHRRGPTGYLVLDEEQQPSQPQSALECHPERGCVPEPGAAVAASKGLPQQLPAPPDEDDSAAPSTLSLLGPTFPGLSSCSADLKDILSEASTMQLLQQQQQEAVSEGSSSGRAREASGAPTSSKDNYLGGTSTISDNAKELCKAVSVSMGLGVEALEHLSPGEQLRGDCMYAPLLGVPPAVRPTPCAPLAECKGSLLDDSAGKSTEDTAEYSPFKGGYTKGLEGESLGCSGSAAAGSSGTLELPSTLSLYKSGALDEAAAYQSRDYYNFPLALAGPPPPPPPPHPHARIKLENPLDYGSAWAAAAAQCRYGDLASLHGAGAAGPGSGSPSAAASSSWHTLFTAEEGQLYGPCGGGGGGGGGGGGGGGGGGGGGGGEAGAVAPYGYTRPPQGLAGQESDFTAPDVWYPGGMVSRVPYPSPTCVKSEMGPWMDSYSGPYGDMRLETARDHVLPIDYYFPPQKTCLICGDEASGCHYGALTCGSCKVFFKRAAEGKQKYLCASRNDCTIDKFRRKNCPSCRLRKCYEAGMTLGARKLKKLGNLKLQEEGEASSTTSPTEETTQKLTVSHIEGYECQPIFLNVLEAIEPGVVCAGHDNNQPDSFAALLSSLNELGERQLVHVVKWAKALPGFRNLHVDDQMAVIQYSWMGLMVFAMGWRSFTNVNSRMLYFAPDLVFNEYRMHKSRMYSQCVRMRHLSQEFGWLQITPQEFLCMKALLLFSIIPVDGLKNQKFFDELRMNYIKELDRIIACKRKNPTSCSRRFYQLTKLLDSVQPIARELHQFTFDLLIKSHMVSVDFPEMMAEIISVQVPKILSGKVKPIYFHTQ
# MDA-MB-435 = experiment: Cytotoxicity against human MDA-MB-435 cells assessed as inhibition of DHT-induced cell growth at 5 uM; type: functional
# Androgen receptor [2] = molecular target: T1, Androgen receptor
# Description: Antagonist activity at wild type human AR expressed in human LNCAP cells by transactivation assay
# Androgen receptor [3] = molecular target: T1, Androgen receptor; remark: listed apart in the source
# Description: Antagonist activity at human wild type AR expressed in human MDA-MB-435 cells by transactivation assay
# Rattus norvegicus [4] = experiment: Effect on immature rat prostate weight in rat assessed as ratio of weight of seminal vesicles to full body weight at 1 mg/kg, po qd for 3 days relative to control; type: functional, Prostate gland
# [5] = Metabolic stability in rat liver microsomes assessed as compound remaining at 3 uM after 10 mins; type: ADME, Microsome; details: read-out: Activity
# [6] = Metabolic stability in human liver microsomes assessed as compound remaining at 3 uM after 10 mins; type: ADME, Microsome; details: read-out: Activity
# [7] = Metabolic stability in mouse liver microsomes assessed as compound remaining at 3 uM after 10 mins; type: ADME, Microsome; details: read-out: Activity
# Rattus norvegicus [8] = experiment: Effect on immature rat prostate weight in rat assessed as ratio of weight of seminal vesicles to full body weight at 30 mg/kg, po qd for 3 days relative to control; type: functional, Prostate gland
SMILES,inhibition at 5 µM (LNCaP) [%],Ki (Androgen receptor [1]) [µM],inhibition at 5 µM (MDA-MB-435) [%],IC50 (Androgen receptor [2]) [µM],IC50 (Androgen receptor [3]) [µM],Activity (Rattus norvegicus [4]) [%],"remaining at 10 min, 3 µM [5] [%]","remaining at 10 min, 3 µM [6] [%]","remaining at 10 min, 3 µM [7] [%]",Activity (Rattus norvegicus [8]) [%]
CCC(=O)N1C[C@@]2(C)O[C@@](C)(C1)[C@@H]1C(=O)N(c3ccc(C#N)c(C(F)(F)F)c3)C(=O)[C@@H]12,91,0.084,95,0.549,0.129,–,–,–,–,–
C[C@]12CN(C(=O)Nc3ccc(F)cc3)C[C@](C)(O1)[C@@H]1C(=O)N(c3ccc(C#N)c(C(F)(F)F)c3)C(=O)[C@@H]12,98,0.029,99,0.104,0.039,–,–,–,–,–
CN1C(=O)[C@]2(C)O[C@](C)(C1=O)[C@H]1C(=O)N(c3ccc(C#N)c(C(F)(F)F)c3)C(=O)[C@H]12,–,0.02,–,> 5,2.14,–,–,–,–,–
CCCN1C[C@@]2(C)O[C@@](C)(C1)[C@@H]1C(=O)N(c3ccc(C#N)c(C(F)(F)F)c3)C(=O)[C@@H]12,98,0.014,99,0.025,0.014,–,–,–,–,–
C[C@]12CN(S(C)(=O)=O)C[C@](C)(O1)[C@@H]1C(=O)N(c3ccc(C#N)c(C(F)(F)F)c3)C(=O)[C@@H]12,61,0.056,99,3.51,0.205,–,–,–,–,–
C[C@]12CN(c3cccc(S(C)(=O)=O)c3)C[C@](C)(O1)[C@@H]1C(=O)N(c3ccc(C#N)c(C(F)(F)F)c3)C(=O)[C@@H]12,98,0.0094,96,0.15,0.0074,37,100,76,92,28
C[C@]12CN(c3cccc(S(N)(=O)=O)c3)C[C@](C)(O1)[C@@H]1C(=O)N(c3ccc(C#N)c(C(F)(F)F)c3)C(=O)[C@@H]12,94,0.022,99,0.337,0.037,–,–,–,–,–
CCS(=O)(=O)N1C[C@@]2(C)O[C@@](C)(C1)[C@@H]1C(=O)N(c3ccc(C#N)c(C(F)(F)F)c3)C(=O)[C@@H]12,90,0.016,99,0.6,0.085,–,–,–,–,–
C[C@]12CN(O)C[C@](C)(O1)[C@@H]1C(=O)N(c3ccc(C#N)c(C(F)(F)F)c3)C(=O)[C@@H]12,79,0.037,97,1.28,0.182,–,–,–,–,–
CC(C)[N+]1([O-])C(=O)[C@]2(C)O[C@](C)(C1=O)[C@H]1C(=O)N(c3ccc(C#N)c(C(F)(F)F)c3)C(=O)[C@H]12 (some centres undefined),–,3.6,58,5,3.9,–,–,–,–,–
C[C@]12O[C@](C)(C(=O)N(CC3CC3)C1=O)[C@H]1C(=O)N(c3ccc(C#N)c(C(F)(F)F)c3)C(=O)[C@H]12,–,0.05,–,3.33,0.873,–,–,–,–,–
C[C@]12CN(c3ncccn3)C[C@](C)(O1)[C@@H]1C(=O)N(c3ccc(C#N)c(C(F)(F)F)c3)C(=O)[C@@H]12,97,0.0061,99,0.377,0.031,–,–,–,–,–
CCOC(=O)N1C[C@@]2(C)O[C@@](C)(C1)[C@@H]1C(=O)N(c3ccc(C#N)c(C(F)(F)F)c3)C(=O)[C@@H]12,93,0.0057,99,0.59,0.065,–,–,–,–,–
C[C@]12CN(S(=O)(=O)c3ccccc3)C[C@](C)(O1)[C@@H]1C(=O)N(c3ccc(C#N)c(C(F)(F)F)c3)C(=O)[C@@H]12,91,0.012,99,0.979,0.099,–,–,–,–,–
C[C@]12CN(C(=O)C3CC3)C[C@](C)(O1)[C@@H]1C(=O)N(c3ccc(C#N)c(C(F)(F)F)c3)C(=O)[C@@H]12,95,0.036,99,0.404,–,–,–,–,–,–
